Where a name gives a salt, the structure may show the parent alone.
Target: HCV NS5b RNA dependent RNA polymerase (Hepatitis C virus genotype 1a, UniProt P27958)
Test: HCV NS5b RNA dependent RNA polymerase inhibition assay (3H-GTP incorporation, scintillation proximity)
Assay type: biochemical
Conditions: inhibition of HCV NS5b polymerase activity; Table 2; read-out: concentration in micromolar required for 50% inhibition
Experimental: Compounds of the present invention are evaluated for inhibition of HCV NS5b RNA dependent RNA polymerase activity in assays comprised of a suitable buffer (e.g. 20 mM Tris-HCl pH 7.6), primed or unprimed RNA templates, GTP, ATP, CTP, and UTP, MnCl2 or MgCl2, and reducing agent such as 10 mM dithiothreitol or 2-mercaptoethanol. The assay buffer may contain salts such as ammonium acetate, KCl, or NaCl, and nonionic or zwitterionic detergents such as Tween or CHAPS. The incorporation of nucleotides into the complementary RNA strand may be monitored by the incorporation of radiolabeled NTP (e.g. ^3H labeled GTP). Suitable RNA templates for de novo initiation in the presence of 20-50 μM GTP or ATP are the homopolymers poly rC and poly rU, respectively. Heteropolymer RNA templates with 1-3 cytidine (C) bases or 1-3 uridine (U) bases at the 3′ terminus of the template may also be used for de novo initiation. Primed RNA templates such as poly rC primed with oligo rG or oligo dG, and poly rA primed with oligo rU may also be used to detect polymerase activity. The primers may be any length greater than 10 bases. A biotin residue may be added to the 5′ end of the template or the 5′ end of the primer to capture the template and the newly synthesized, complementary strand on avidin coated spheres. […]

HCV NS5b RNA dependent RNA polymerase, sequence (P27958 2421-3011): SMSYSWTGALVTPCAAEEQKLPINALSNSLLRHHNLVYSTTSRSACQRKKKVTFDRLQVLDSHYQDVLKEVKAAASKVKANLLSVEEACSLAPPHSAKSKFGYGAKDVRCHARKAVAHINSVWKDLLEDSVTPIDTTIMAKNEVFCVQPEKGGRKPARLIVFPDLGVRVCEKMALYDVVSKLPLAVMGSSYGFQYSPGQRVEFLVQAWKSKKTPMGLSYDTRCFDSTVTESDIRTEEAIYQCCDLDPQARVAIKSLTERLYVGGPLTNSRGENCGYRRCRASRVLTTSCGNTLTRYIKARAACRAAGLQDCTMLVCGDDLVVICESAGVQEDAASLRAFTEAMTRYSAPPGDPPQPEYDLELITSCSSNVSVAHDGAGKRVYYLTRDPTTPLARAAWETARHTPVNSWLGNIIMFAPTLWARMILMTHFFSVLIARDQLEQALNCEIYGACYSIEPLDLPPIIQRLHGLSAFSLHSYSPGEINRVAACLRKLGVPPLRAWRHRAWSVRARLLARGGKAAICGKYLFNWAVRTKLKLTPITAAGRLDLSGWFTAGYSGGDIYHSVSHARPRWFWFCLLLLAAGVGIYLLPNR

Row | SMILES | IC50
1 | NCc1ccc(Nc2ccc(C(F)(F)F)cc2NC(=O)c2cc(Cl)c(Cl)cc2C(=O)O)cc1 [i., 2-[[[2-[[4-(Aminomethyl)phenyl]amino]-5-(trifluoromethyl)phenyl]amino]carbonyl]-4,5-dichlorobenzoic acid monohydrochloride] | 1.42 µM
2 | N#Cc1ccc(Nc2ccc(C(F)(F)F)cc2NC(=O)c2ccccc2C(=O)O)cc1 [xvii., 2-({[2-[(4-cyanophenyl)amino]-5-(trifluoromethyl)phenyl]amino}carbonyl)benzoic acid] | 1.74 µM

— patent US6930106B2, “Inhibitors of HCV NS5B polymerase” (Pharmacia & UpJohn Company, priority 2002, dated 2005)
